Experimental data taken from PubChem BioAssay AID720632 (Broad Institute, 2013).
Activity calls are given as the source filed them. The rule behind the calls is not given here.

Target: Caspase-6 (Homo sapiens) (UniProt P55212)
Assay: human caspase-6 inhibitors, dose response, biochemical, VEID-R110 fluorescence, cherry-pick (AID 720632)
Settings: caspase-6, VEID-R110 fluorogenic substrate; at 26 µM (top of the series)

Chain of Caspase-6 (Homo sapiens) (P55212 24-179 limits assumed): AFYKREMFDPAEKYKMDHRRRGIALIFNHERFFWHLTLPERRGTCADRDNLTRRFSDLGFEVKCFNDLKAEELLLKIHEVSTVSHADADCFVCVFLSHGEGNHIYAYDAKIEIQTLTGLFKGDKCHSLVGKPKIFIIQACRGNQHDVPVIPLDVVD
Chain of Caspase-6 (Homo sapiens) (P55212 194-293 limits assumed): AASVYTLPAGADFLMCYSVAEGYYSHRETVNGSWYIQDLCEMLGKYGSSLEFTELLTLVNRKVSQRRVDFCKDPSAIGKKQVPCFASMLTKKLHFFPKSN

Structure (SMILES) | activity change, negative = inhibition
CCOC(=O)C1=C(COC(=O)c2ccc([N+](=O)[O-])s2)NC(=O)NC1C (centres undefined) | inactive
CN1CCN(c2cc(CNC[C@H]3O[C@@H](n4cnc5c(=O)[nH]c(N)nc54)[C@H](O)[C@@H]3O)ccc2F)CC1 | inactive
S=c1[nH]cc(-c2ccccc2)n1-c1cccc(Cl)c1 | inactive
Cc1onc(NC(=O)NC(=O)c2c(F)cccc2Cl)c1Br | inactive
CCCc1cc(-c2n[nH]c(C(=O)OCC)c2-c2cscn2)c(O)cc1O | inactive
CNC(=O)c1ccccc1NC(=O)C1CC(=O)N(C(C)C)C1 (centres undefined) | inactive
CCOc1ncccc1C(=O)OC(C)C(=O)Nc1ccc(N2CCOCC2)cc1 (centres undefined) | inactive
COc1cccc(CN(C)CC(O)COc2cc(Cl)ccc2Cl)c1 (centres undefined) | inactive
COc1ccccc1CNC(=O)COC(=O)c1ccc([N+](=O)[O-])o1 | inactive
O=C(O)c1cc([N+](=O)[O-])cc([N+](=O)[O-])c1N1CCN(c2cccc(C(F)(F)F)c2)CC1 | inactive
CO[C@H]1CN(C)C(=O)c2ccc(NC(=O)C3CC3)cc2OC[C@@H](C)N(Cc2ccccc2)C[C@H]1C | inactive
CCCN1C[C@@H](C)[C@H](OC)CN(C)C(=O)c2ccc(NC(=O)CC)cc2OC[C@@H]1C | inactive
CCN(CC)CCN(CC)Cc1ccccc1Br | inactive
Cc1ccn2c(=S)[nH]nc2c1 | inactive
COC(=O)c1cccc(NC(=O)c2cccc(N3C(=O)CCC3=O)c2)c1 | inactive
NC[C@H](O)c1ccc(O)c(O)c1 | inactive
CN1CCCCC(NC(=O)COCc2ccccc2)C1=O (centres undefined) | inactive
COCC(=O)Nc1ccc2c(c1)OC[C@H](C)N(CC1CC1)C[C@H](C)[C@H](OC)CN(C)C2=O | inactive
Cc1ccc(S(=O)(=O)N(CC(=O)Nc2ccccc2C(=O)O)c2cccc(Cl)c2C)cc1 | inactive
COc1ccccc1C(=O)Nc1ccc2c(c1)OC[C@H](C)N(CC1CC1)C[C@H](C)[C@H](OC)CN(C)C2=O | inactive
CCC(C)CN1C(=O)CN(S(C)(=O)=O)CC1(C)C(=O)Nc1ccc2c(c1)OCCO2 (centres undefined) | inactive
CC(CNC(=O)c1ccc(OC2CCN(Cc3ccccn3)CC2)cc1)c1ccccc1 (centres undefined) | inactive

Continued, values first:

activity change, negative = inhibition | Structure (SMILES)
inactive | CCCN1C[C@H](C)[C@@H](OC)CN(C)C(=O)c2ccc(NC(=O)c3ccccc3)cc2OC[C@H]1C
inactive | CCS(=O)(=O)c1nc(S(=O)(=O)c2ccc(Cl)cc2)c(N2CCOCC2)s1
inactive | O=C([C@@H]1[C@@H](CO)[C@@H]2Cn3c(cccc3=O)[C@@H]2N1Cc1cc(F)ccc1F)N1CCOCC1
inactive | COC(=O)C[C@@H]1CC[C@H](NC(=O)c2ccc3c(c2)OCO3)[C@@H](CO)O1
inactive | Nc1ccc(C(=O)N/N=C/c2cn(Cc3ccc(F)cc3)c3ccccc23)cc1
inactive | Cc1cccc(C(=O)Nc2cccc(NC(=O)c3ccccc3)c2)c1
inactive | COc1ccc(-n2c(NNC(C)=O)nc3sc4c(c3c2=O)CCCC4)cc1
inactive | CO[C@H]1CN(C)C(=O)c2ccc(NC(=O)C3CC3)cc2OC[C@@H](C)N(Cc2cccc(F)c2)C[C@H]1C
inactive | CCN(CC)c1c([N+](=O)[O-])c(=O)n(CC)c2ccccc12
inactive | COc1ccccc1C(=O)Nc1ccc2c(c1)OC[C@H](C)N(CC1CC1)C[C@@H](C)[C@@H](OC)CN(C)C2=O
inactive | CCC1CCc2sc(C(=O)NNC(=O)c3ccncc3)cc2C1 (centres undefined)
inactive | COCCNc1nc(Nc2ccccc2Cl)c2sc(-c3ccccc3)cc2n1
inactive | CO[C@@H]1CN(C)C(=O)c2ccc(NC(C)=O)cc2OC[C@@H](C)N(C(=O)CC2CC2)C[C@@H]1C
inactive | O=C(O)c1cccc(S(=O)(=O)NNc2ccccc2C(F)(F)F)c1
inactive | O=C(NC1CC2CCC(C1)N2Cc1ccccc1)c1ccccc1Br (centres undefined)
inactive | O=C(COC(=O)Cc1ccc(S(=O)(=O)N2CCOCC2)s1)Nc1ccc(F)cc1F
inactive | CC(=O)Nc1ccc(C=NNc2ccc([N+](=O)[O-])cc2S(=O)(=O)Nc2ccccc2C(=O)O)cc1
